Several values for one entry are separate records, joined by “and”; a condition that tells them apart may be missing. Identical values can stand only once. Like-named read-outs stand apart in the source and are kept apart here.
Key:
[1] = tested on: mouse tracheal rings; experiment: Wire myograph bronchodilation of carbachol pre-contracted mouse tracheal rings; conditions: for time to steady-state relaxation of mouse tracheal rings: EC75 carbachol; for EC50: Mus musculus; for onset of action: bronchodilating mouse airways, summary
Protocol: The trachea from C57 BL/6 mice was dissected and collected in PBS with Mg^2+ and Ca^2+. After further trimming, two 2 mm sections (rings) per trachea were then placed in DMEM media containing PSG/HEPES/AA/NaPyr for 1 h and used immediately or maintained overnight at 37°C in a humidified incubator with 5% CO2. Rings were then mounted into chambers of DMT wire myograph containing L-shaped mounting pins with 2–3 mN of force applied to secure rings on the pins and the rings were allowed to equilibrate for 25–30 min in a physiological saline buffer (PSS, 130 mM NaCl, 4.7 mM KCl, 1.2 mM MgS04, 14.9 mM NaHCO3, 1.2 mM KH2PO4, 0.026 mM EDTA, 1.6 mM CaCl2, 5.5 mM Dextrose). Throughout the experiment, rings were maintained at physiological temperature and gas conditions by heating buffer reservoir and chamber to 37°C and bubbling a 95% O2, 5% CO2 gas mixture into chamber.
After equilibration, a standard tissue “Wake-Up” procedure was applied by altering tension and then treatment with elevated potassium as follows: 3 mN tension was applied for 5–10 min, then another 2–3 mN tension to total of 5.5 mN and then to 7–8 mN for another 5 min; the tissue pre-tension was then set to 5 mN and allowed to equilibrate for 5–10 min followed by the removal of the PSS buffer and addition of KPSS (60 mM KCl, 74.7 mM NaCl in PSS solution), with force changes monitored until they reached a plateau. The tissue was then washed four times with PSS over 5 min and the KPSS treatment and washes repeated; the tissue was then allowed to sit in PSS for 10 min and the tension was set to 5 mN.
The tissue was then washed three times and then three times more with PSS for 5 min until tension returned to baseline.
Only tissue that passed the qualification tests above advanced to studies on test article compounds. […] For standard ascending dose-response studies on TMEM16A antagonists, an EC75 or EC95 concentration of CCh was used to pre-contract tracheal rings.

[2] = molecular target: T1, hTMEM16A (abc) (Homo sapiens, UniProt Q5XXA6, DEL476-501); experiment: medchem TMEM16A halide-sensitive YFP assay, 22-point dose-response; assay type: cell-based; set-up: expressed in transfected cells; conditions: for scope of block of ionomycin-induced iodide eYFP quenching: up to 55.6 μM
T1 sequence (Q5XXA6 with tags, fused parts or gaps isoform Q5XXA6-5 DEL539-564): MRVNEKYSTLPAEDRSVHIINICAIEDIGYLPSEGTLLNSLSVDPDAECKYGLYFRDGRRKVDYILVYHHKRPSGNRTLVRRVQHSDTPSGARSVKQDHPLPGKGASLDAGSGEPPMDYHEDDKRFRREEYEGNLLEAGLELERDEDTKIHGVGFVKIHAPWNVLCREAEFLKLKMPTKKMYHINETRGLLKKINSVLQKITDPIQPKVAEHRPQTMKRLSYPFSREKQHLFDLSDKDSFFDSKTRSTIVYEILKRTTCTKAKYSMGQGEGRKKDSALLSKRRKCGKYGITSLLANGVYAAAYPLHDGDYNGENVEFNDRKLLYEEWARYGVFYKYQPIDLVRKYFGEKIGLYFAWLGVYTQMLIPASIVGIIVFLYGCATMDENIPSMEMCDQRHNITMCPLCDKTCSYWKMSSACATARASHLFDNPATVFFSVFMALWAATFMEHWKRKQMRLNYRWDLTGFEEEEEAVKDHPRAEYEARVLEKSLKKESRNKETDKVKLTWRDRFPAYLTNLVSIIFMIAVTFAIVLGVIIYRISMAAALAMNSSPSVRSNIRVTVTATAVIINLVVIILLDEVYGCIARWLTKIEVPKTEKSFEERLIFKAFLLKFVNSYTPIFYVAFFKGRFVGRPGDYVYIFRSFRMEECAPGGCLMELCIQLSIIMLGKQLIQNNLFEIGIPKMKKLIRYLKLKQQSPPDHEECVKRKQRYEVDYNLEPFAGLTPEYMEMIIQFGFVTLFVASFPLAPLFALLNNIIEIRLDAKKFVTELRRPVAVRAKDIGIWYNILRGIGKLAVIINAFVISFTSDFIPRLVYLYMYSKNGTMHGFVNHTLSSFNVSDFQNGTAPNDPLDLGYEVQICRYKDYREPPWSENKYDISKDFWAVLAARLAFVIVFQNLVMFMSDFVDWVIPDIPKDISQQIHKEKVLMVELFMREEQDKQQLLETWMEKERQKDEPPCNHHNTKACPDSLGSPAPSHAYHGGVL
How it was run: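 HEK293T stably expressing eYFP (H149Q, I153L) and hTMEM16A(abc), preincubated 30 min at room temperature with compound in HBSS/10 mM HEPES pH 7.4.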

[3] = carbachol pre-contracted, values marked † (footnote not given), read-out: Bronchodilation of Mouse Tracheal Rings (EC50)
[4] = average, 22-point dose-response, iodide as permeant anion, read-out: TMEM16A eYFP Assay (IC50)
[5] = carbachol pre-contracted, values marked § (footnote not given), read-out: Bronchodilation of Mouse Tracheal Rings (EC50)
[6] = supplement, iodide as permeant anion, maximum concentration 55.6, read-out: TMEM16A eYFP Assay IC50
[7] = pre-contracted with EC75 carbachol, average, read-out: EC50 relaxation of mouse tracheal rings

Row | Structure (SMILES) | EC50 [1, 3] | IC50 [2, 4] | scope of block of ionomycin-induced iodide eYFP quenching [2] | IC50 [2, 6] | also measured
1 | CCc1oc2ccccc2c1C(=O)c1cc(Br)c(O)c(Br)c1 [Benzbromarone] | 1280 ± 211 nM | 1510 ± 504 nM | fully inhibited |  | time to steady-state relaxation of mouse tracheal rings ([1]; 1 μM): 40 to 60 min; EC50 ([1]; pre-contracted with EC75 carbachol, read-out: EC50 relaxation of mouse tracheal rings): 1280 nM; onset of action [1]: 17 to 60 min; IC50 ([2]; TMEM16A eYFP Assay IC50, supplement, iodide as permeant anion, maximum concentration 55.6): 1510 ± 504 nM
2 | O=C(Nc1ncc([N+](=O)[O-])s1)c1cccs1 [NTTP] |  | 2480 ± 1240 nM |  |  | EC50 [1, 5]: 7610 nM
3 | CC(C)(C)C1CCc2c(sc(NC(=O)c3ccco3)c2C(=O)O)C1 (stereo not drawn) [CaCCinh-A01] | 13500 nM |  |  |  | 
4 | Oc1ccc(Cl)cc1Cc1cc(Cl)ccc1O [Dichlorophen] | 2010 nM | 4370 ± 1210 nM | fully inhibited | 4360 ± 1210 nM | 
5 | O=C(Nc1ncc([N+](=O)[O-])s1)c1ccccc1O [Tizoxanide] | 3900 nM | 398 nM | partially inhibiting |  | 
6 | CCc1c(C)nc(SCC(=O)Nc2nc(-c3ccc(OC)cc3)cs2)[nH]c1=O [T16Ainh-A01] | > 50000 nM | > 50000 nM | inactive | > 55600 nM | 
7 | N#Cc1c(C(F)(F)F)cc(O)n2c1nc1ccccc12 [1PBC] | 1770 nM | 1520 ± 1360 nM | only partial inhibition | 1520 ± 1360 nM | 
8 | COc1cc(Nc2ccc([N+](=O)[O-])cc2C(=O)O)cc2ccccc12 [MONNA] | 3020 nM | 6300 ± 1470 nM | fully inhibited | 6290 ± 1470 nM | 
9 | O=C(O)c1cccnc1Nc1cccc(C(F)(F)F)c1 [Niflumic Acid] | 51200 nM | 26600 ± 11800 nM |  |  | 
10 | O=C(Nc1ccc(Cl)cc1)c1cc(Cl)ccc1O [Cpd 5] | 1120 nM | 370 ± 131 nM | only partially inhibited | 370 ± 131 nM | 
11 | O=C(Nc1ccc([N+](=O)[O-])cc1)c1cc(Cl)ccc1O [Cpd 2] | 483 nM |  | only partially inhibited |  | EC50 [1, 5]: 585 nM
12 | O=C(Nc1ccc([N+](=O)[O-])cc1)c1cc(Cl)c2ccccc2c1O [Cpd 3] |  | 184 ± 89 nM | only partially inhibited |  | EC50 [1, 5]: 606 ± 3 nM
13 | O=C(Nc1ccc([N+](=O)[O-])cc1Cl)c1cc(Cl)ccc1O [Niclosamide] | 379 ± 82 nM | 130 nM and 132 nM | only partial inhibition | 132 ± 67.1 nM | time to steady-state relaxation of mouse tracheal rings ([1]; 1 μM): 17 to 35 min; EC50 [1, 7]: 365 nM; onset of action [1]: 17 to 60 min; maximal percent inhibition in the TMEM16A/eYFP assay ([2]; iodide as permeant anion): 62.4 ± 12.0%; times more potent than other antagonists in the halide-sensitive YFP assay ([2]; versus eight benchmark antagonists): 10–200 times
14 | COc1cc([N+](=O)[O-])ccc1NC(=O)c1cc(Cl)c2ccccc2c1O [Cpd 4] | 467 ± 167 nM | 901 ± 524 nM | only partial inhibition | 954 ± 648 nM | time to steady-state relaxation of mouse tracheal rings ([1]; 316 nM): 25 to 45 min; EC50 [1, 7]: ~332 nM; onset of action [1]: 17 to 60 min

Source: article PMC6382696, “Drug Repurposing: The Anthelmintics Niclosamide and Nitazoxanide Are Potent TMEM16A Antagonists That Fully Bronchodilate Airways” (Frontiers in Pharmacology, 2019)
